Results: patent US7816387B2, “β secretase inhibitor” (Dainippon Sumitomo Pharma Co., Ltd., priority 2005, dated 2010)

System: Human Neuroblastoma IMR-32 Cell
Assay: Inhibition of production and secretion of Aβ in IMR-32 cells (ELISA of Aβ)
Assay type: cell-based
Conditions: 24 hours incubation, Aβ in supernatant by ELISA
Protocol: 1) Incubation of IMR-32 Cell
IMR-32 cells (American Type Culture Collection Inc.) were seeded to 35 mmφPetri dish (FALCON Ltd.) at 37° C. for 2 to 3 days at 1.5×10^5 cells/petri dish. A DMSO solution containing test compound was dissolved in a 0.2% bovine serum albumin (Sigma Inc.)/Dulbecco's modified Eagle medium (Sigma Inc.), and a 1 mL of the mixture was added to the above Petri dish and the mixture was incubated for additional 24 hours. A 0.2% bovine serum albumin/Dulbecco's modified Eagle medium without the test compound was used as a control. The supernatant was collected and centrifuged at 5000 rpm for 5 minutes to precipitate a suspension cell. After centrifugation, the supernatant was used as a measurement sample of Aβ.
(2) Determination by Enzyme-Linked Immunoassay (ELISA) of Aβ
To a maxi sorp 96 well plate (Nunc Inc.) was added 50 μL portions of 4G8 antibody (Sigma Inc.) dissolved in 0.1M carbonate buffer (pH 9.5) and the mixture was allowed to stand at 4° C. overnight. […] After washing three times with PBST, color was developed by TMB substrate kit (Pias Inc.) and the calorimetric method (measured wavelength: 450 nm) was determined by a plate reader (ELx 808, BIO-TEK INSTRUMENTS Inc.).

**Q.** `C[C@@H](NC(=O)c1cc(C(=O)N[C@@H](Cc2ccccc2)[C@@H](O)C(=O)Nc2ncc[nH]2)cc(N(C)S(C)(=O)=O)c1)c1ccccc1` [Example 1, N-[(1S,2R)-1-Benzyl-2-hydroxy-3-(1H-imidazol-2-ylamino)-3-oxopropyl]-5-[methyl(methylsulfonyl)amino]-N′-[(1R)-1-phenylethyl]isophthalamide] was tested. Which IC50 did it give?
**A.** Its IC50 is 200 nM.
